In brackets after ≈: the same amount, converted by molar mass.
How the values were obtained:
Assay type in all cases: functional
[1] = test system: Mycobacterium tuberculosis; assay: Antituberculosis activity against Mycobacterium tuberculosis H37Rv assessed as growth inhibition after 12 to 28 days by L-J MIC method; settings: for MIC: Mycobacterium tuberculosis, H37Rv
Candida albicans [2] = assay: Antimicrobial activity against Candida albicans MTCC 183 assessed as growth inhibition after 48 hr by agar streak dilution technique; settings: MTCC 183, 48 h
Pseudomonas aeruginosa [3] = assay: Antimicrobial activity against Pseudomonas aeruginosa MTCC 741 assessed as growth inhibition after 24 hr by agar streak dilution technique; settings: MTCC 741, 24 h
Escherichia coli [4] = assay: Antimicrobial activity against Escherichia coli MTCC 739 assessed as diameter of growth inhibition zone after 24 hr by paper disk diffusion technique; note: test concentration or dose not given here
Aspergillus niger [5] = assay: Antimicrobial activity against Aspergillus niger MTCC 282 assessed as diameter of growth inhibition zone after 24 hr by paper disk diffusion technique; note: test concentration or dose not given here
Bacillus subtilis [6] = assay: Antimicrobial activity against Bacillus subtilis MTCC 430 assessed as growth inhibition after 24 hr by agar streak dilution technique; settings: MTCC 430, 24 h
Staphylococcus aureus [7] = assay: Antimicrobial activity against Staphylococcus aureus MTCC 96 assessed as growth inhibition after 24 hr by agar streak dilution technique; settings: MTCC 96, 24 h
Pseudomonas aeruginosa [8] = assay: Antimicrobial activity against Pseudomonas aeruginosa MTCC 741 assessed as diameter of growth inhibition zone after 24 hr by paper disk diffusion technique; note: test concentration or dose not given here
Bacillus subtilis [9] = assay: Antimicrobial activity against Bacillus subtilis MTCC 430 assessed as diameter of growth inhibition zone after 24 hr by paper disk diffusion technique; note: test concentration or dose not given here
Aspergillus niger [10] = assay: Antimicrobial activity against Aspergillus niger MTCC 282 assessed as growth inhibition after 48 hr by agar streak dilution technique; settings: MTCC 282, 48 h
Escherichia coli [11] = assay: Antimicrobial activity against Escherichia coli MTCC 739 assessed as growth inhibition after 24 hr by agar streak dilution technique; settings: MTCC 739, 24 h
Staphylococcus aureus [12] = assay: Antimicrobial activity against Staphylococcus aureus MTCC 96 assessed as diameter of growth inhibition zone after 24 hr by paper disk diffusion technique; note: test concentration or dose not given here
Candida albicans [13] = assay: Antimicrobial activity against Candida albicans MTCC 183 assessed as diameter of growth inhibition zone after 24 hr by paper disk diffusion technique; note: test concentration or dose not given here

| Compound | growth inhibition (GI) [1] | MIC [1] | MIC (Candida albicans [2]) | MIC (Pseudomonas aeruginosa [3]) | diameter of the inhibition zone (DIZ) (Escherichia coli [4]) | diameter of the inhibition zone (DIZ) (Aspergillus niger [5]) | MIC (Bacillus subtilis [6]) | MIC (Staphylococcus aureus [7]) | diameter of the inhibition zone (DIZ) (Pseudomonas aeruginosa [8]) | diameter of the inhibition zone (DIZ) (Bacillus subtilis [9]) | MIC (Aspergillus niger [10]) | MIC (Escherichia coli [11]) | diameter of the inhibition zone (DIZ) (Staphylococcus aureus [12]) | diameter of the inhibition zone (DIZ) (Candida albicans [13]) |
| --- | --- | --- | --- | --- | --- | --- | --- | --- | --- | --- | --- | --- | --- | --- |
| O=C1CSC(c2cc3ccccc3nc2Cl)N1c1ccccc1 (stereo not drawn) | 92% | 250 µg/mL (≈ 733 µM) | 100 µg/mL (≈ 293 µM) | 100 µg/mL (≈ 293 µM) | <10 mm | 14 mm | 100 µg/mL (≈ 293 µM) | 100 µg/mL (≈ 293 µM) | 13 mm | <10 mm | 100 µg/mL (≈ 293 µM) | 100 µg/mL (≈ 293 µM) | 17 mm | <10 mm |
| O=C1CSC(c2cc3ccccc3nc2Cl)N1c1ccccc1Cl (stereo not drawn) | 95% | 100 µg/mL (≈ 266 µM) | 62.5 µg/mL (≈ 167 µM) | 25 µg/mL (≈ 66.6 µM) | 21 mm | 20 mm | 12.5 µg/mL (≈ 33.3 µM) | 50 µg/mL (≈ 133 µM) | 21 mm | 23 mm | 62.5 µg/mL (≈ 167 µM) | 62.5 µg/mL (≈ 167 µM) | 21 mm | 21 mm |
| O=C1C(Cl)C(c2cc3ccccc3nc2Cl)N1c1cccc(Cl)c1 (stereo not drawn) | 98% | 50 µg/mL (≈ 132 µM) | 62.5 µg/mL (≈ 165 µM) | 25 µg/mL (≈ 66.2 µM) | 21 mm | 25 mm | 12.5 µg/mL (≈ 33.1 µM) | 25 µg/mL (≈ 66.2 µM) | 22 mm | 23 mm | 62.5 µg/mL (≈ 165 µM) | 62.5 µg/mL (≈ 165 µM) | 25 mm | 20 mm |
| O=C1C(Cl)C(c2cc3ccccc3nc2Cl)N1c1ccc(F)cc1 (stereo not drawn) | 98% | 25 µg/mL (≈ 69.2 µM) | 50 µg/mL (≈ 138 µM) | 50 µg/mL (≈ 138 µM) | 23 mm | 26 mm | 25 µg/mL (≈ 69.2 µM) | 25 µg/mL (≈ 69.2 µM) | 22 mm | 23 mm | 25 µg/mL (≈ 69.2 µM) | 25 µg/mL (≈ 69.2 µM) | 23 mm | 24 mm |
| O=C1CSC(c2cc3ccccc3nc2Cl)N1c1ccc(Cl)cc1 (stereo not drawn) | 96% | 62.5 µg/mL (≈ 167 µM) | 50 µg/mL (≈ 133 µM) | 25 µg/mL (≈ 66.6 µM) | 23 mm | 25 mm | 12.5 µg/mL (≈ 33.3 µM) | 50 µg/mL (≈ 133 µM) | 24 mm | 24 mm | 12.5 µg/mL (≈ 33.3 µM) | 50 µg/mL (≈ 133 µM) | 23 mm | 22 mm |
| O=C1C(Cl)C(c2cc3ccccc3nc2Cl)N1c1cccc([N+](=O)[O-])c1 (stereo not drawn) | 93% | 100 µg/mL (≈ 258 µM) | 100 µg/mL (≈ 258 µM) | 50 µg/mL (≈ 129 µM) | 22 mm | 26 mm | 50 µg/mL (≈ 129 µM) | 25 µg/mL (≈ 64.4 µM) | 22 mm | 21 mm | 50 µg/mL (≈ 129 µM) | 62.5 µg/mL (≈ 161 µM) | 25 mm | 19 mm |
| Cc1cnc(N2C(=O)CSC2c2cc3ccccc3nc2Cl)s1 (stereo not drawn) | 98% | 25 µg/mL (≈ 69.1 µM) | 100 µg/mL (≈ 276 µM) | 50 µg/mL (≈ 138 µM) | 24 mm | 24 mm | 50 µg/mL (≈ 138 µM) | 50 µg/mL (≈ 138 µM) | 22 mm | 23 mm | 62.5 µg/mL (≈ 173 µM) | 25 µg/mL (≈ 69.1 µM) | 24 mm | 23 mm |
| O=C1CSC(c2cc3ccccc3nc2Cl)N1c1cccc([N+](=O)[O-])c1 (stereo not drawn) | 94% | 100 µg/mL (≈ 259 µM) | 25 µg/mL (≈ 64.8 µM) | 12.5 µg/mL (≈ 32.4 µM) | 22 mm | 24 mm | 50 µg/mL (≈ 130 µM) | 12.5 µg/mL (≈ 32.4 µM) | 24 mm | 22 mm | 25 µg/mL (≈ 64.8 µM) | 62.5 µg/mL (≈ 162 µM) | 26 mm | 23 mm |
| Cc1ccccc1N1C(=O)C(Cl)C1c1cc2ccccc2nc1Cl (stereo not drawn) | 91% | 1000 µg/mL (≈ 2800 µM) | 100 µg/mL (≈ 280 µM) | 100 µg/mL (≈ 280 µM) | <10 mm | <10 mm | 100 µg/mL (≈ 280 µM) | 100 µg/mL (≈ 280 µM) | <10 mm | <10 mm | 100 µg/mL (≈ 280 µM) | 100 µg/mL (≈ 280 µM) | 16 mm | <10 mm |
| O=C1CSC(c2cc3ccccc3nc2Cl)N1c1ccc(F)cc1 (stereo not drawn) | 99% | 12.5 µg/mL (≈ 34.8 µM) | 25 µg/mL (≈ 69.7 µM) | 25 µg/mL (≈ 69.7 µM) | 23 mm | 25 mm | 12.5 µg/mL (≈ 34.8 µM) | 25 µg/mL (≈ 69.7 µM) | 24 mm | 23 mm | 12.5 µg/mL (≈ 34.8 µM) | 25 µg/mL (≈ 69.7 µM) | 24 mm | 24 mm |
| Cc1cccc(N2C(=O)C(Cl)C2c2cc3ccccc3nc2Cl)c1 (stereo not drawn) | 90% | 500 µg/mL (≈ 1400 µM) | 100 µg/mL (≈ 280 µM) | 100 µg/mL (≈ 280 µM) | 14 mm | 20 mm | 100 µg/mL (≈ 280 µM) | 100 µg/mL (≈ 280 µM) | 16 mm | 18 mm | 100 µg/mL (≈ 280 µM) | 100 µg/mL (≈ 280 µM) | <10 mm | <10 mm |
| O=C1CSC(c2cc3ccccc3nc2Cl)N1c1cccc(Cl)c1 (stereo not drawn) | 97% | 50 µg/mL (≈ 133 µM) | 100 µg/mL (≈ 266 µM) | 25 µg/mL (≈ 66.6 µM) | 22 mm | 24 mm | 12.5 µg/mL (≈ 33.3 µM) | 25 µg/mL (≈ 66.6 µM) | 23 mm | 24 mm | 50 µg/mL (≈ 133 µM) | 62.5 µg/mL (≈ 167 µM) | 26 mm | 20 mm |

Reference: ChEMBL document CHEMBL3045012, “Quinoline-based azetidinone and thiazolidinone analogues as antimicrobial and antituberculosis agents” (2013)
